Results reported in ChEMBL document CHEMBL1201862, “PubChem BioAssay data set” (2004).
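Dose response: 5 concentrations. Exposure: 48 h. Format: 96-well plates. Endpoint: linear interpolation; highest concentration if not reached. GI50 is the concentration that inhibits growth by half.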 Activity calls are given as the source filed them. Rule as the data show it: active = GI50 up to about 1.1 µM and inactive = higher.

What was measured:
Experiment in all cases: inhibition of tumour cell growth, NCI panel, 48 h
KM-20L2 = test system: KM-20L2
CCRF-CEM = test system: CCRF-CEM
A498 = test system: A498
KM12 = test system: KM12
OVCAR-3 = test system: OVCAR-3
SR = test system: SR
UACC-62 = test system: UACC-62
OVCAR-4 = test system: OVCAR-4
HOP-92 = test system: HOP-92
SNB-75 = test system: SNB-75
UACC-257 = test system: UACC-257
NCI-H226 = test system: NCI-H226
786-0 = test system: 786-0
ACHN = test system: ACHN
TK-10 = test system: TK-10
A549 = test system: A549
NCI/ADR-RES = test system: NCI/ADR-RES
BT-549 = test system: BT-549
MDA-N = test system: MDA-N
MCF7 = test system: MCF7

Row | SMILES | GI50 (KM-20L2) | GI50 (CCRF-CEM) | GI50 (A498) | GI50 (KM12) | GI50 (OVCAR-3) | GI50 (SR) | GI50 (UACC-62) | GI50 (OVCAR-4) | GI50 (HOP-92) | GI50 (SNB-75) | GI50 (UACC-257) | GI50 (NCI-H226) | GI50 (786-0) | GI50 (ACHN) | GI50 (TK-10) | GI50 (A549) | GI50 (NCI/ADR-RES) | GI50 (BT-549) | GI50 (MDA-N) | GI50 (MCF7)
1 | O=C1C2c3[nH]c4ccccc4c3C3CCCCCC3C2C(=O)N1c1ccccc1 (stereo not drawn) | > 100 µM (inactive) | 9.57 µM (inactive) | 30.8 µM (inactive) | > 100 µM (inactive) | 16.3 µM (inactive) | > 33.3 µM (inactive) | > 63.7 µM (inactive) | 3.09 µM (inactive) | 30.1 µM (inactive) | 3.44 µM (inactive) | 30.7 µM (inactive) | 21.3 µM (inactive) | 44.9 µM (inactive) | 39.6 µM (inactive) | 35.3 µM (inactive) | 34.4 µM (inactive) | – | – | – | –
2 | CCCNCC(=O)O[C@]1(CC)C(=O)OCc2c1cc1n(c2=O)Cc2cc3ccccc3nc2-1 | 0.416 µM (active) | < 0.01 µM (active) | 0.163 µM (active) | 0.528 µM (active) | 0.457 µM (active) | < 0.01 µM (active) | < 0.01 µM (active) | 0.69 µM (active) | 0.325 µM (active) | 0.0429 µM (active) | 0.163 µM (active) | 0.0121 µM (active) | < 0.01 µM (active) | < 0.01 µM (active) | 4.43 µM (inactive) | 0.0322 µM (active) | – | – | – | –
3 | Cc1cc(C)nc(NS(=O)(=O)c2ccc(Nc3c4ccc(Cl)cc4nc4c(C(=O)NCCN(C)C)cccc34)cc2)n1 | > 100 µM (inactive) | > 100 µM (inactive) | > 100 µM (inactive) | > 100 µM (inactive) | > 100 µM (inactive) | 55.7 µM (inactive) | > 100 µM (inactive) | > 100 µM (inactive) | 78 µM (inactive) | > 100 µM (inactive) | > 100 µM (inactive) | > 100 µM (inactive) | > 100 µM (inactive) | > 100 µM (inactive) | > 100 µM (inactive) | > 100 µM (inactive) | – | – | – | –
4 | O=C1c2ccccc2C(=O)c2c1ccc1conc21 | 15.4 µM (inactive) | 1.04 µM (active) | 11.9 µM (inactive) | 3.24 µM (inactive) | 0.296 µM (active) | 1.36 µM (inactive) | 2.45 µM (inactive) | 0.7 µM (active) | 1.07 µM (active) | 7.59 µM (inactive) | 1.98 µM (inactive) | 7.06 µM (inactive) | 2.75 µM (inactive) | 1.94 µM (inactive) | 6.44 µM (inactive) | 4.95 µM (inactive) | 0.649 µM (active) | 1.91 µM (inactive) | 0.392 µM (active) | 1.03 µM (active)
